According to patent US20210269434A1, “TRICYCLIC COMPOUNDS AS INHIBITORS OF KRAS” (Incyte Corporation, priority 2020, published 2021):

Assays:
[1] = test system: MIA PaCa-2 (KRAS G12C) cells; assay: Cellular pERK HTRF assay (KRAS_G12C pERK); type: cell-based, human; conditions: Homo sapiens, MIA PaCa-2, 4 hours incubation, read-out: G12C_pERK
Procedure, shortened: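 MIA PaCa-2 cells plated overnight, then exposed to compound for 4 h at 37 °C (G12C compounds). Phospho-ERK1/2 measured in lysates by HTRF (665/620 nm) after overnight antibody incubation; IC50 from percent inhibition versus log concentration.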

[2] = molecular target: KRAS G12C (Homo sapiens, UniProt P01116, G12C); assay: GDP-GTP exchange assay (KRAS_G12C exchange); type: biochemical; conditions: bodipy-GDP loaded KRAS G12C 2.5 nM, SOS1 150 nM, GppNHp; 2 hours pre-incubation, 2 hours reaction; read-out: G12C_exchange
Sequence of KRAS G12C (P01116 1-188 isoform P01116-2 G12C): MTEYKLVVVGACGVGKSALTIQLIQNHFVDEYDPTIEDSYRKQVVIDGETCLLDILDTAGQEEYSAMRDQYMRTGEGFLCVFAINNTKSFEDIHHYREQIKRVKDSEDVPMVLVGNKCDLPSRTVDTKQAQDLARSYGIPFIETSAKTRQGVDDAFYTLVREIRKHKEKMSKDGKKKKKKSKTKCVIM
Procedure, shortened: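 Fluorescence exchange of bodipy-GDP for GppNHp, SOS1-driven, read at 485/520 nm; IC50 from four-parameter variable-slope fit. Both mutants used 2.5 nM final labelled protein and a 2 h compound pre-incubation. G12C reaction had 500 uM GppNHp and 150 nM SOS1 for 2 h; G12D ran 4 h.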

| SMILES | IC50 [1] [nM] | IC50 [2] [nM] |
| --- | --- | --- |
| C=CC(=O)N1CC[C@H](n2nnc3c(N4CC(N(C)C)C4)nc4c(Cl)c(-c5cccc(Cl)c5Cl)c(Cl)cc4c32)C[C@H]1CC#N [Example 281, 2-((2S,4S)-1-acryloyl-4-(6,8-dichloro-7-(2,3-dichlorophenyl)-4-(3-(dimethylamino)azetidin-1-yl)-1H-[1,2,3]triazolo[4,5-c]quinolin-1-yl)piperidin-2-yl)acetonitrile] | ≤ 100 | ≤ 100 |
| C=CC(=O)N1CC[C@H](n2nnc3c(N4CC(N(C)C)C4)nc4c(Cl)c(-c5cccc(C)c5Cl)c(Cl)cc4c32)C[C@H]1CC#N [Example 282, 2-((2S,4S)-1-acryloyl-4-(6,8-dichloro-7-(2-chloro-3-methylphenyl)-4-(3-(dimethylamino)azetidin-1-yl)-1H-[1,2,3]triazolo[4,5-c]quinolin-1-yl)piperidin-2-yl)acetonitrile] | ≤ 100 | ≤ 100 |
| C=CC(=O)N1CC[C@H](n2nnc3c(OC[C@@H]4CCCN4C)nc4c(Cl)c(-c5cccc(Cl)c5Cl)c(Cl)cc4c32)C[C@H]1CC#N [Example 285, 2-((2S,4S)-1-acryloyl-4-(6,8-dichloro-7-(2,3-dichlorophenyl)-4-(((S)-1-methylpyrrolidin-2-yl)methoxy)-1H-[1,2,3]triazolo[4,5-c]quinolin-1-yl)piperidin-2-yl)acetonitrile] | ≤ 100 | ≤ 100 |
| C=CC(=O)N1CC[C@H](n2nnc3c(OC[C@@H]4CCCN4C)nc4c(Cl)c(-c5cccc(C)c5Cl)c(Cl)cc4c32)C[C@H]1CC#N [Example 286, 2-((2S,4S)-1-acryloyl-4-(6,8-dichloro-7-(2-chloro-3-methylphenyl)-4-(((S)-1-methylpyrrolidin-2-yl)methoxy)-1H-[1,2,3]triazolo[4,5-c]quinolin-1-yl)piperidin-2-yl)acetonitrile] | ≤ 100 | ≤ 100 |
| C=CC(=O)N1CC[C@H](n2nnc3c(OC[C@@H]4CCCN4C)nc4c(Cl)c(-c5cccc(Cl)c5C)c(Cl)cc4c32)C[C@H]1CC#N [Example 287, 2-((2S,4S)-1-acryloyl-4-(6,8-dichloro-7-(3-chloro-2-methylphenyl)-4-(((S)-1-methylpyrrolidin-2-yl)methoxy)-1H-[1,2,3]triazolo[4,5-c]quinolin-1-yl)piperidin-2-yl)acetonitrile] | ≤ 100 | ≤ 100 |

More lines, now with the values ahead:

| IC50 [1] [nM] | IC50 [2] [nM] | SMILES |
| --- | --- | --- |
| ≤ 100 | ≤ 100 | C=CC(=O)N1CC[C@H](n2nnc3c(N4CC(N(C)C)C4)nc4c(Cl)c(-c5cccc(Cl)c5C)c(Cl)cc4c32)C[C@H]1CC#N [Example 273, 2-((2S,4S)-1-acryloyl-4-(6,8-dichloro-7-(3-chloro-2-methylphenyl)-4-(3-(dimethylamino)azetidin-1-yl)-1H-[1,2,3]triazolo[4,5-c]quinolin-1-yl)piperidin-2-yl)acetonitrile] |
| ≤ 100 | ≤ 100 | CC#CC(=O)N1CC[C@H](n2nnc3c(N4CC(N(C)C)C4)nc4c(Cl)c(-c5ccc(F)c6cccnc56)c(Cl)cc4c32)C[C@H]1CC#N [Example 274a, 2-((2S,4S)-1-(but-2-ynoyl)-4-(6,8-dichloro-4-(3-(dimethylamino)azetidin-1-yl)-7-(5-fluoroquinolin-8-yl)-1H-[1,2,3]triazolo[4,5-c]quinolin-1-yl)piperidin-2-yl)acetonitrile] |
| ≤ 100 | ≤ 100 | CC#CC(=O)N1CC[C@H](n2nnc3c(OC[C@@H]4CCCN4C)nc4c(Cl)c(-c5cccc(Cl)c5Cl)c(Cl)cc4c32)C[C@H]1CC#N [Example 278, 2-((2S,4S)-1-(but-2-ynoyl)-4-(6,8-dichloro-7-(2,3-dichlorophenyl)-4-(((S)-1-methylpyrrolidin-2-yl)methoxy)-1H-[1,2,3]triazolo[4,5-c]quinolin-1-yl)piperidin-2-yl)acetonitrile] |
